How the values were obtained:
Assay in all cases: Protein kinase selectivity panel
Settings in all cases: 1.0 μM compound, 10 μM ATP
[1] = system: p70S6K(h); assay type: biochemical, human
Description: (§1) Protein kinase selectivity assays were performed as described in the scientific literature (Davies, S. P., et al., Biochem. J. 2000, 351, 95-105). Briefly, protein kinases were assayed for their ability to phosphorylate the appropriate peptide/protein substrates in the presence of 1.0 μM compound. Assays were done using 10 μM ATP and were linear with respect to time. The protein kinase selectivity assays were performed by Upstate Cell Signaling Solutions using Upstate's KinaseProfiler™ Selectivity Screening Service.

[2] = target: Abl(h) (Homo sapiens, UniProt P00519); assay type: biochemical
Description: as §1

[3] = target: Blk(m) (Mus musculus, UniProt P16277); assay type: biochemical
Chain of Blk(m) (P16277 whole entry): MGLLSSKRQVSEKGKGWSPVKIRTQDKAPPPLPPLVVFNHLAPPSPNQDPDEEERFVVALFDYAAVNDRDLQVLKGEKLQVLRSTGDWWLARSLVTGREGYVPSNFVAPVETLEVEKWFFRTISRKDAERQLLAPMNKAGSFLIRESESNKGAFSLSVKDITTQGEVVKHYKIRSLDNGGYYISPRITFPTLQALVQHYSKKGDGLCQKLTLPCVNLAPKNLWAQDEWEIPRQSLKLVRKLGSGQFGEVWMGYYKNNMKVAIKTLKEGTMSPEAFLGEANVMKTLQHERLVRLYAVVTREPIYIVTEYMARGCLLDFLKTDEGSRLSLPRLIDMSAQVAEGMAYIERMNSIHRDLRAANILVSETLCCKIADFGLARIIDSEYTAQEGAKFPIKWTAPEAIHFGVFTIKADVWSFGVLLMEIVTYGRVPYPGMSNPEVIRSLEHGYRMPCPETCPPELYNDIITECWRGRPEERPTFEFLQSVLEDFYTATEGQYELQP
Description: as §1

[4] = target: CDK5/p35(h) (Homo sapiens, UniProt Q00535); assay type: biochemical
Chain of CDK5/p35(h) (Q00535 whole entry): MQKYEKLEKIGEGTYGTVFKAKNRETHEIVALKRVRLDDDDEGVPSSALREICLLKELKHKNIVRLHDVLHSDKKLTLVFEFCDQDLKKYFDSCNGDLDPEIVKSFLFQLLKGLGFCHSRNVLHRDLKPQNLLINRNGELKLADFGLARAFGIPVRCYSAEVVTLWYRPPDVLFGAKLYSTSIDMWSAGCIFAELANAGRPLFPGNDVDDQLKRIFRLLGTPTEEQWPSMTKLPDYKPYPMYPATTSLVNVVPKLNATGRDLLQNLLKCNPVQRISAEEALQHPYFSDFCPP
Chain of CDK5/p35(h) (Q15078 whole entry partner): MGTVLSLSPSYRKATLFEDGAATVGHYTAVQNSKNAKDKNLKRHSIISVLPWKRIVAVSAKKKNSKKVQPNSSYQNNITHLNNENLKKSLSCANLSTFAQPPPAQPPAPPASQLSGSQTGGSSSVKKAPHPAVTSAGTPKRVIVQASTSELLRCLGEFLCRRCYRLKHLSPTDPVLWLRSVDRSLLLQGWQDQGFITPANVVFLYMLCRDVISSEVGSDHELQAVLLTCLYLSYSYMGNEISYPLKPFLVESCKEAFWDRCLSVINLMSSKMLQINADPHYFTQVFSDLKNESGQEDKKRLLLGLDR
Description: as §1

[5] = target: T1, IKKβ(h) (Homo sapiens, UniProt O14920); assay type: biochemical
T1 sequence (O14920 1-756): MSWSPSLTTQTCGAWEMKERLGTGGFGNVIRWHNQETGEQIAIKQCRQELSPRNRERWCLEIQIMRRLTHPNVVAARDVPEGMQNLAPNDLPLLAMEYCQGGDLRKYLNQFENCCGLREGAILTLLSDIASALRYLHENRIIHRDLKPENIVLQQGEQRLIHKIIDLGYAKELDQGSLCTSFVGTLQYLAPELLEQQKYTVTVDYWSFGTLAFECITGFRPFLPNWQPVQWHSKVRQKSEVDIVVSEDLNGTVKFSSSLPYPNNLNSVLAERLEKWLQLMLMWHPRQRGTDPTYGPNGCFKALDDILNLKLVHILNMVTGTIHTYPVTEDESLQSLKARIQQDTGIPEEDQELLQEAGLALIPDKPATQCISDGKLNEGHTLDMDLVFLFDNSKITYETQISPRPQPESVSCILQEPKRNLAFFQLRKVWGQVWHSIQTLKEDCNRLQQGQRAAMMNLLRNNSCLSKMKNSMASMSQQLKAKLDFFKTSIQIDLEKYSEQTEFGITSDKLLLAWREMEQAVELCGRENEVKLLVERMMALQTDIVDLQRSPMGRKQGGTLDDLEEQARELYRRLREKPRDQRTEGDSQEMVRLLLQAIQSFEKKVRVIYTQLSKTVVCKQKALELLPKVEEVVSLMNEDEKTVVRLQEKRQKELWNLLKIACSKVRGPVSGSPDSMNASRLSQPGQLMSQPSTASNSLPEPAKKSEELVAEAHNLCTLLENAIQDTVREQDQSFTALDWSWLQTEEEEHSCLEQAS
Description: as §1

[6] = target: Lyn(h) (Homo sapiens, UniProt P07948); assay type: biochemical
Description: as §1

[7] = target: T2, MKK6(h) (Homo sapiens, UniProt P52564); assay type: biochemical
T2 sequence (P52564 1-334): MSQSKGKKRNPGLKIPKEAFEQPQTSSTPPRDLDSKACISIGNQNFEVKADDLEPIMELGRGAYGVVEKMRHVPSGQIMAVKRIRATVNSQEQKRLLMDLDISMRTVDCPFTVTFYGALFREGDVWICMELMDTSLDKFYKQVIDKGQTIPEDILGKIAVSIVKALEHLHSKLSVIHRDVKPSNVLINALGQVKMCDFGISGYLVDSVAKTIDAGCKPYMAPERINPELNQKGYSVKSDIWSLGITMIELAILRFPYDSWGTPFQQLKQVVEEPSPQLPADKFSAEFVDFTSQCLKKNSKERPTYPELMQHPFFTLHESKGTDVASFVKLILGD
Description: as §1

[8] = target: PAR-1Bα(h) (Homo sapiens, UniProt Q7KZI7); assay type: biochemical
Description: as §1

[9] = target: PKCβII(h) (Homo sapiens, UniProt P05771); assay type: biochemical
Chain of PKCβII(h) (P05771 1-673 isoform P05771-2): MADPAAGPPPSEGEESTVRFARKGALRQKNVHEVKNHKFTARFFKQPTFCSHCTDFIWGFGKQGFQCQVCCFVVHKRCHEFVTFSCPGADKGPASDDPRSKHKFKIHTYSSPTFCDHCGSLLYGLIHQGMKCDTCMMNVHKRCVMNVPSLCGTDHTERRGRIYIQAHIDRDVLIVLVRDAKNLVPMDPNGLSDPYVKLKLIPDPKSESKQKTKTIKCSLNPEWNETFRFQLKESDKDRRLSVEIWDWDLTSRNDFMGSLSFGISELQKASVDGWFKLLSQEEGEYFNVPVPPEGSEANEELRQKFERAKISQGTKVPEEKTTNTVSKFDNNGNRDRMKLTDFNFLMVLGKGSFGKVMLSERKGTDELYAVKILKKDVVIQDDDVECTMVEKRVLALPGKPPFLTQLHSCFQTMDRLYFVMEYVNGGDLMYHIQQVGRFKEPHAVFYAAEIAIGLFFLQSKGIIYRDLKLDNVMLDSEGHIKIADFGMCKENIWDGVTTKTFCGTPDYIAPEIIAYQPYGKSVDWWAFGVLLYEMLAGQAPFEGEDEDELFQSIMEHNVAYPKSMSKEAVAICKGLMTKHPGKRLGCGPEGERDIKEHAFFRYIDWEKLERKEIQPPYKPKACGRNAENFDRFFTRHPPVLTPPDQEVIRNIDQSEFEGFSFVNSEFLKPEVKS
Description: as §1

[10] = target: PKCθ(h) (Homo sapiens, UniProt Q04759); assay type: biochemical
Chain of PKCθ(h) (Q04759 whole entry): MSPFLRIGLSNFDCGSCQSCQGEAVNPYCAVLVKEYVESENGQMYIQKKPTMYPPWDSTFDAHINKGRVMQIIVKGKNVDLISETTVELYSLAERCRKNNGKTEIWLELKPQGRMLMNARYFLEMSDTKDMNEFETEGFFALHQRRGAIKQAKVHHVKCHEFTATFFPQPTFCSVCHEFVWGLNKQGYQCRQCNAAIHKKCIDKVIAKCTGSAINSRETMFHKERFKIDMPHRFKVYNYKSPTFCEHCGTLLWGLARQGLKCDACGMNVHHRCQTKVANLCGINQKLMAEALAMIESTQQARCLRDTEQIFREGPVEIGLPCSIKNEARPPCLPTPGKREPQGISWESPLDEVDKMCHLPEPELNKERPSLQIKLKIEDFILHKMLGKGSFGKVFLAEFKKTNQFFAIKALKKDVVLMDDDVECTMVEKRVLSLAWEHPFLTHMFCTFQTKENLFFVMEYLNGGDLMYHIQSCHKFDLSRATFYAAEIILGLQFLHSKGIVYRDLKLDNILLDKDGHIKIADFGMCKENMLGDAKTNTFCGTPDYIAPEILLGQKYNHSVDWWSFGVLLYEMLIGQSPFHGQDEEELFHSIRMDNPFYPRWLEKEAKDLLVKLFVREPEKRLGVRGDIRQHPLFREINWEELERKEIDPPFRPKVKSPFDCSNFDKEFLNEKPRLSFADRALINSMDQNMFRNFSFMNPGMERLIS
Description: as §1

[11] = target: T3, PRAK(h) (Homo sapiens, UniProt Q8IW41); assay type: biochemical
T3 sequence (Q8IW41 1-473): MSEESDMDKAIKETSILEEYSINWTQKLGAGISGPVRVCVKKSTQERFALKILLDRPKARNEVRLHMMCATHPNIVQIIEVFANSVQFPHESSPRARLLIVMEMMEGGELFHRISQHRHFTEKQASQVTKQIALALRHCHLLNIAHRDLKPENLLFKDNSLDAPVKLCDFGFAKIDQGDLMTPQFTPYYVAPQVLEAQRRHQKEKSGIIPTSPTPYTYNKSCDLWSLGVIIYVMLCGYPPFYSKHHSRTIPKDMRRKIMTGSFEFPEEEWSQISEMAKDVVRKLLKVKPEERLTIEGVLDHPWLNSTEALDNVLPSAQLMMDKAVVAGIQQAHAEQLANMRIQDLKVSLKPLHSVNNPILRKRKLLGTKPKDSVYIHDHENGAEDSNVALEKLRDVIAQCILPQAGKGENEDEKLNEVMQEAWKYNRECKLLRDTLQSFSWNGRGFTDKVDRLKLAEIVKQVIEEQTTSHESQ
Description: as §1

[12] = target: ROCK-II(h) (Homo sapiens, UniProt O75116); assay type: biochemical
Description: as §1

[13] = target: ROCK-II(r) (Rattus norvegicus, UniProt Q62868); assay type: biochemical
Description: as §1

[14] = target: Rsk1(h) (Homo sapiens, UniProt Q15418); assay type: biochemical
Chain of Rsk1(h) (Q15418 whole entry): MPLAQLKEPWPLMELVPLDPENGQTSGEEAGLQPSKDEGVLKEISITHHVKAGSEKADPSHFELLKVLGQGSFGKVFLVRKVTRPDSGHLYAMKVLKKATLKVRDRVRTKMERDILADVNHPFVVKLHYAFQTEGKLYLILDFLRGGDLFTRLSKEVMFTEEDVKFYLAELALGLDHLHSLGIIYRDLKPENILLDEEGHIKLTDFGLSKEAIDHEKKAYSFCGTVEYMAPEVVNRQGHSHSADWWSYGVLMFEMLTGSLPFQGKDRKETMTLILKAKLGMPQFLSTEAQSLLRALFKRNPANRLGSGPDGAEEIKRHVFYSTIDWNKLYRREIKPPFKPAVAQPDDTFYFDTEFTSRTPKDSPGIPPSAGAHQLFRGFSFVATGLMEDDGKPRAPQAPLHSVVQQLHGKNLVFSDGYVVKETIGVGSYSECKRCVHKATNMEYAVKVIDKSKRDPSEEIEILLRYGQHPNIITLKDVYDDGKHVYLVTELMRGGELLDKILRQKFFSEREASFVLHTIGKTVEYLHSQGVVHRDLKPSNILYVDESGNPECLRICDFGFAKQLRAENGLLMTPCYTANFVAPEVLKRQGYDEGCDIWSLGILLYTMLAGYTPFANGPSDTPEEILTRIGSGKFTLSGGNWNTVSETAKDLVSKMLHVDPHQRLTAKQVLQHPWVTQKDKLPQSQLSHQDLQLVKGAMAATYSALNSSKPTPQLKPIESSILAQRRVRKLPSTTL
Description: as §1

[15] = target: Rsk1(r) (Rattus norvegicus, UniProt Q63531); assay type: biochemical
Chain of Rsk1(r) (Q63531 whole entry): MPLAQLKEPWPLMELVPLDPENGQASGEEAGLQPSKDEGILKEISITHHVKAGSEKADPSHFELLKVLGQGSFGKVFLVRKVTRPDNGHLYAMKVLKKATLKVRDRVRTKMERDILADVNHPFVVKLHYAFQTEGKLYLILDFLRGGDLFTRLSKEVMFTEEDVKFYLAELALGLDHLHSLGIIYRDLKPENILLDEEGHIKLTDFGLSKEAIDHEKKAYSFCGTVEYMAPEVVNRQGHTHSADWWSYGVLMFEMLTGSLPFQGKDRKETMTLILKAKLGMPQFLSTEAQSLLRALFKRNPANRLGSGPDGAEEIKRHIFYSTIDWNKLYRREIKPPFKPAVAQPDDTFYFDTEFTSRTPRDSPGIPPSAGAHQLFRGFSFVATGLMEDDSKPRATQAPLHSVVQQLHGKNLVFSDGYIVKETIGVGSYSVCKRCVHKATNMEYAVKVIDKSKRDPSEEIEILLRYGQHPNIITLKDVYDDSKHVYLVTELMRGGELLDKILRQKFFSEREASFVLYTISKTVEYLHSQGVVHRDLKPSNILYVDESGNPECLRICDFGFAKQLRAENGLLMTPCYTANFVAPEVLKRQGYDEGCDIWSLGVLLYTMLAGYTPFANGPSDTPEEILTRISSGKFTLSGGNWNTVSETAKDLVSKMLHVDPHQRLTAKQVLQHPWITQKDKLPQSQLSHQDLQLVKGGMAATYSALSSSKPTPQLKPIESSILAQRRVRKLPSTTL
Description: as §1

[16] = target: Rsk2(h) (Homo sapiens, UniProt P51812); assay type: biochemical
Chain of Rsk2(h) (P51812 whole entry): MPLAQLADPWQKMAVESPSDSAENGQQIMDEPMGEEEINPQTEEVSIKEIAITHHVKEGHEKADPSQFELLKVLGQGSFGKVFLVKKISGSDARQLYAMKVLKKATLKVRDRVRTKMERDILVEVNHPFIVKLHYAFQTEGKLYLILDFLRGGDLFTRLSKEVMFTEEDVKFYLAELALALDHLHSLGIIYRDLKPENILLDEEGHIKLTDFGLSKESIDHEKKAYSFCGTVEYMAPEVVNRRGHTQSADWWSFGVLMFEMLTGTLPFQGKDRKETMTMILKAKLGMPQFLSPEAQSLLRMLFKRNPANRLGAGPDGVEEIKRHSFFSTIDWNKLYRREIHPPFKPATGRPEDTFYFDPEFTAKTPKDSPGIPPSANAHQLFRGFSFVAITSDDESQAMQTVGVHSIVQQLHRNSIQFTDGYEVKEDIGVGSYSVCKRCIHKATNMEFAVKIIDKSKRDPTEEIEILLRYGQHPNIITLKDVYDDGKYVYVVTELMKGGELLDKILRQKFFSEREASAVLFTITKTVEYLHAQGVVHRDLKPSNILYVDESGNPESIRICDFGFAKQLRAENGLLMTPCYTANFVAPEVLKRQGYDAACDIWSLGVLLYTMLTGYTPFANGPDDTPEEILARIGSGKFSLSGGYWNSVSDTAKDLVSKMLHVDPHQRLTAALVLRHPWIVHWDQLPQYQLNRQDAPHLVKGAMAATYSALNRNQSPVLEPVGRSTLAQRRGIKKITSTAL
Description: as §1

[17] = target: Syk(h) (Homo sapiens, UniProt P43405); assay type: biochemical
Description: as §1

SMILES | Activity at Protein Kinase Assays (% of control), p70S6K(h) [1] | Activity at Protein Kinase Assays (% of control), Abl(h) [2] | Activity at Protein Kinase Assays (% of control), Blk(m) [3] | Activity at Protein Kinase Assays (% of control), CDK5/p35(h) [4] | Activity at Protein Kinase Assays (% of control), IKKβ(h) [5] | Activity at Protein Kinase Assays (% of control), Lyn(h) [6] | Activity at Protein Kinase Assays (% of control), MKK6(h) [7] | Activity at Protein Kinase Assays (% of control), PAR-1Bα(h) [8] | Activity at Protein Kinase Assays (% of control), PKCβII(h) [9] | Activity at Protein Kinase Assays (% of control), PKCθ(h) [10] | Activity at Protein Kinase Assays (% of control), PRAK(h) [11] | Activity at Protein Kinase Assays (% of control), ROCK-II(h) [12] | Activity at Protein Kinase Assays (% of control), ROCK-II(r) [13] | Activity at Protein Kinase Assays (% of control), Rsk1(h) [14] | Activity at Protein Kinase Assays (% of control), Rsk1(r) [15] | Activity at Protein Kinase Assays (% of control), Rsk2(h) [16] | Activity at Protein Kinase Assays (% of control), Syk(h) [17]
CN(C)c1nc2ccc1CCCCn1cc(c3ccccc31)C1=C(C(=O)NC1=O)c1cn(c3ccccc13)CCC2 [Cpd 1, 31-(dimethylamino)-5,15,25,32-tetraazaheptacyclo[28.2.2.1^5,12.1^18,25.0^6,11.0^13,17.0^19,24]hexatriaconta-1(32),6,8,10,12(36),13(17),18(35),19,21,23,30,33-dodecaene-14,16-dione] | 98 % of control | 105 % of control | 109 % of control | 99 % of control | 128 % of control | 107 % of control | 102 % of control | 94 % of control | 64 % of control | 21 % of control | 88 % of control | 110 % of control | 101 % of control | 39 % of control | 37 % of control | 32 % of control | 86 % of control
O=C1NC(=O)C2=C1c1cn(c3ccccc13)CCCc1ccc(c(N3CCCC3)n1)CCCn1cc2c2ccccc21 [Cpd 7, 31-pyrrolidin-1-yl-5,15,25,30-tetraazaheptacyclo[27.2.2.1^5,12.1^18,25.0^6,11.0^13,17.0^19,24]pentatriaconta-1(31),6,8,10,12(35),13(17),18(34),19,21,23,29,32-dodecaene-14,16-dione] | 84 % of control | 108 % of control | 91 % of control | 104 % of control | 130 % of control | 78 % of control | 85 % of control | 101 % of control | 77 % of control | 33 % of control | 102 % of control | 104 % of control | 91 % of control | 85 % of control | 67 % of control | 63 % of control | 109 % of control
O=C1NC(=O)C2=C1c1cn(c3ccccc13)CCCc1cc(nc(N3CCCC3)c1)CCCn1cc2c2ccccc21 [Cpd 6, 20-pyrrolidin-1-yl-4,14,19,26-tetraazaheptacyclo[24.6.1.1^7,14.1^18,22.0^2,6.0^8,13.0^27,32]pentatriaconta-1(33),2(6),7(35),8,10,12,18(34),19,21,27,29,31-dodecaene-3,5-dione] | 95 % of control | 107 % of control | 74 % of control | 99 % of control | 125 % of control | 87 % of control | 91 % of control | 96 % of control | 74 % of control | 29 % of control | 101 % of control | 107 % of control | 83 % of control | 15 % of control | 5 % of control | 12 % of control | 105 % of control
